In PMC3404106, “Pharmacology of DB844, an Orally Active aza Analogue of Pafuramidine, in a Monkey Model of Second Stage Human African Trypanosomiasis” (PLoS Neglected Tropical Diseases, 2012):
Several values for one entry are separate records, joined by “and”; a condition that tells them apart may be missing. Equal values may be shown once. Entries after “also recorded” stand apart in the source; their conditions may differ.

What was measured:
[1] = Metabolism of DB844 in vervet monkey liver microsomes; assay type: in vitro ADME; settings: 10 µM DB844, 0.2 mg/ml male vervet monkey liver microsomes
Description: The metabolism of DB844 was investigated using liver microsomes, prepared from a male vervet monkey by XenoTech, LLC (Lenexa, KS), in the presence of NADPH as described previously with modifications. Briefly, incubation mixtures (1 ml at pH7.4, in triplicate) contained 10 µM DB844 and 0.2 mg/ml monkey liver microsomes. After a 5-min equilibration period at 37°C, reactions were initiated with the addition of NADPH. Aliquots (50 µl) of the reaction mixtures were removed at 0, 5, 10, 15, 30, 60, 90, and 120 min and mixed with 25 µl of ice-cold acetonitrile. The mixtures were centrifuged (10,000×g for 5 min at 4°C) and the supernatants were analyzed by HPLC/UV using the same method as previously described for DB289 [22]. […] DB844 and metabolites were quantified using a single-concentration calibration curve generated using synthetic standards.

[2] = Safety monitoring (clinical, haematology, clinical chemistry) in infected DB844-treated monkeys; assay type: in vivo, vervet monkey; settings: for RBC / Haematocrit / Hemoglobin / Mean corpuscular haemoglobin / Mean corpuscular volume / Platelet counts / WBC counts: infected monkeys
Description: Haematology samples (1 ml) were analysed using an AC^3diffT Coulter Counter (Miami, Florida, USA). Clinical chemistries were determined using a Humalyzer analyser system. Finally, plasma and CSF were analyzed for drug and metabolite concentrations using an HPLC-tandem Mass Spectrometry (HPLC-MS/MS) procedure as described below.

GVR35 CNS model of HAT = test system: GVR35 CNS model of HAT; design: method as in PMID 19620327; settings: cited from earlier work
[3] = test system: 1st stage experimental murine HAT infections; design: method as in PMID 19620327; settings: DB844 at 25 mg/kg; cited from earlier work
[4] = Toxicity study of 10-day oral DB844 regimens in uninfected monkeys
[5] = Pharmacokinetics (plasma and CSF) in infected monkeys after last DB844 dose
[6] = infected monkeys after oral DB844 treatment, days post last dose
[7] = DB844 6 mg/kg×14 days, 41 DPI (0 days post last dose)
[8] = DB844 6 mg/kg×14 days, 48 DPI (7 days post last dose)
[9] = DB844 6 mg/kg×14 days, 69 DPI (28 days post last dose)
[10] = DB844 6 mg/kg×14 days, 104 DPI (63 days post last dose)
[11] = uninfected monkeys, DB844 5 mg/kg×10 days orally, monkeys 572F, 582M
[12] = uninfected monkeys, DB844 10 mg/kg×10 days orally, monkeys 541F, 578M, 10 mg/kg
[13] = uninfected monkeys, DB844 10 mg/kg×10 days orally, monkeys 541F, 578M, parenthesis = days post first dose when observed, 10 mg/kg
[14] = vervet 578, 10 mg/kg×10 days orally, uninfected
[15] = plasma, after the 14th oral dose of DB844 at 6 mg/kg, n = 7, geometric mean, analyte = label

## CONC(=N)c1ccc(-c2ccc(-c3ccc(C(=N)NOC)cn3)o2)cc1 [DB844, N-methoxy-6-{5-[4-(N-methoxyamidino)phenyl]-furan-2-yl}-nicotinamidine]
[1]
  metabolites formed over a 120 min incubation period: at least seven
[1]; pH 7.4, NADPH, 37°C, pH7.4, read-out: microsomal half-life
  half-life at 10 µM: ~0.233 h
[2]; group II, 6 mg/kg, after 7 daily drug doses (34 DPI), baseline 4.5±0.9 IU
  mean plasma ALT at its peak: 13.6±3.8 IU
[2]; group II, 6 mg/kg×14 days
  alkaline phosphatase change during and after drug administration: no significant changes
  plasma creatinine change from baseline: not significant
  total bilirubin and direct bilirubin changes: none of the changes were statistically significant
[2]; group II, 6 mg/kg×14 days, 24 hours post dosing
  increase of mean plasma AST above baseline: 3.3 times
[2]; group II, 6 mg/kg×14 days, 24 hours post dosing, baseline 37.0±4.8 IU
  mean (± SE) plasma AST: 121±21.6 IU
[2]; group II, 6 mg/kg×14 days, from 48 h post dosing (43 DPI)
  blood urea nitrogen (BUN) as indicator of renal function: mild and reversible decrease in kidney function
[2]; group II, efficacy study
  increases in plasma transaminases (AST and ALT): 2–3 fold
  time to reversal of transaminase elevations after the last drug dose: 4 to 7 days
[2]; [6]
  time to re-establishment of baseline RBC associated parameters: 28 to 63 days
  time to re-establishment of baseline platelet parameters: within seven
[2]; infected monkeys treated with oral DB844 (5 and 6 mg/kg)
  drug related haematology changes: no drug related haematology changes; also recorded: No DB844-related haematological aberrations
[2]; DB844 6 mg/kg×14 days (28–41 DPI), 41 DPI (0 days post last dose)
  RBC: 4.8±0.3, p<0.0001 ×10^6/µl
[2]; [7]
  Haematocrit: 31.6±1.6, p<0.0001%
  Hemoglobin: 11.2±0.7, p<0.0001 g/dl
  Mean corpuscular haemoglobin: 23.0±0.3 p<0.008 g/dl
  Mean corpuscular volume: 65.3±0.9, p = 0.0001 fl
  Platelet counts: 406.5±22.5 p = 0.05 ×10^3/µl
  WBC counts: 7.1±1.0, p = 0.12 ×10^3/µl
[2]; [8]
  Haematocrit: 31.8±1.6, p<0.0001%
  Hemoglobin: 11.5±0.6, p<0.0001 g/dl
  Mean corpuscular haemoglobin: 23.3±0.4 p = 0.07 g/dl
  Mean corpuscular volume: 64.8±0.9, p = 0.0001 fl
  Platelet counts: 390.7±32.4, p = 0.11 ×10^3/µl
  RBC: 4.9±0.2, p<0.004 ×10^6/µl
  WBC counts: 5.6±1.2, p = 0.9 ×10^3/µl
[2]; [9]
  Haematocrit: 43.8±1.6, p = 0.91%
  Hemoglobin: 12.8±0.5, p = 0.15 g/dl
  Mean corpuscular haemoglobin: 23.4±0.6, p = 0.13 g/dl
  Mean corpuscular volume: 79.8±1.4, p = 0.11 fl
  Platelet counts: 332.2±11.9, p = 0.78 ×10^3/µl
  RBC: 5.5±0.2, p = 0.55 ×10^6/µl
  WBC counts: 5.9±0.8, p = 0.8 ×10^3/µl
[2]; [10]
  Haematocrit: 46.7±2.7, p = 0.91%
  Hemoglobin: 14.1±0.8, p = 0.11 g/dl
  Mean corpuscular haemoglobin: 23.3±0.5 p = 0.21 g/dl
  Mean corpuscular volume: 77.0±1.5, p = 0.21 fl
  Platelet counts: 294.3±17.4 p = 0.55 ×10^3/µl
  RBC: 6.1±0.3 p = 0.02 ×10^6/µl
  WBC counts: 5.1±0.1, p = 0.4 ×10^3/µl
GVR35 CNS model of HAT; DB844 at 100 mg/kg
  cure of 2nd stage experimental murine HAT infection: curative
GVR35 CNS model of HAT; mice, oral DB844 (100 mg/kg×5 days)
  animals cured: 5/5
[3]
  cure of 1st stage experimental murine HAT infection: curative
[4]; uninfected monkeys, 5 mg/kg/day orally for 10 days
  monkeys in which no adverse clinical signs of toxicity were elicited: 2/2
[4]; uninfected monkeys, 10 mg/kg/day orally for 10 days
  monkeys with overt toxicity: 1/2
[4]; uninfected monkeys, 20 mg/kg/day orally (8 doses given)
  monkeys with overt toxicity: 2/2
[4]; uninfected monkeys, 5, 10 or 20 mg/kg/day orally
  weight loss (maximum among adverse clinical events): up to 10.5%
[4]; [11]
  Adverse clinical events: GIT changes: None
  Adverse clinical events: Jaundice: None
  Adverse clinical events: Reduced feed intake: None
  Daily doses completed: 10/10
  Euthanised due to toxicity: No
[4]; uninfected monkeys, DB844 5 mg/kg×10 days orally, monkeys 572F, 582M, 5 mg/kg
  % weight loss: 1.8% and 4.9%
[4]; uninfected monkeys, DB844 10 mg/kg×10 days orally, monkeys 541F, 578M
  Daily doses completed: 10/10
[4]; [12]
  % weight loss: 4.6% and 10.5%
  Adverse clinical events: Jaundice: None and yes
[4]; [13]
  Adverse clinical events: GIT changes: None and Yes (16)
  Adverse clinical events: Reduced feed intake: Yes (11); also recorded: Yes (14)
[4]; uninfected monkeys, DB844 10 mg/kg×10 days orally, monkeys 541F, 578M, parenthesis = days post first dose, 10 mg/kg
  Euthanised due to toxicity: No and Yes (16)
[4]; uninfected monkeys, DB844 20 mg/kg×10 days orally, monkeys 543F, 606M
  Adverse clinical events: Jaundice: yes
[4]; uninfected monkeys, DB844 20 mg/kg×10 days orally, monkeys 543F, 606M, 20 mg/kg
  % weight loss: 9.1% and 6.5%
[4]; uninfected monkeys, DB844 20 mg/kg×10 days orally, monkeys 543F, 606M, dosing withdrawn on overt toxicity
  Daily doses completed: 8/10
[4]; uninfected monkeys, DB844 20 mg/kg×10 days orally, monkeys 543F, 606M, parenthesis = days post first dose when observed
  Adverse clinical events: GIT changes: Yes (8)
[4]; uninfected monkeys, DB844 20 mg/kg×10 days orally, monkeys 543F, 606M, parenthesis = days post first dose when observed, 20 mg/kg
  Adverse clinical events: Reduced feed intake: Yes (8); also recorded: Yes (9)
[4]; uninfected monkeys, DB844 20 mg/kg×10 days orally, monkeys 543F, 606M, parenthesis = days post first dose, 20 mg/kg
  Euthanised due to toxicity: Yes (9); also recorded: Yes (10)
[4]; uninfected monkeys, middle dose 10 mg/kg×10 days
  monkeys in which the dose was well tolerated: 1/2
[4]; [14]
  mean corpuscular volume (MCV) after rise from 76.6: 86.9 fL
  red cell distribution width (RDW) after rise from 15: 18.4
  rise in mean corpuscular volume (MCV): 13%
  rise in red cell distribution width (RDW): 23%
[5]; after last dose of DB844 6 mg/kg×14 days
  detection in CSF after the 1 h post dose sample: not detected thereafter
[5]; monkey, CSF, oral, 6 mg/kg
  concentration at 1 h: 0.017 µM
[5]; monkey, in vivo, po, 6 mg/kg
  half-life: 5.8 h
[5]; monkey, plasma, po, 6 mg/kg
  CL/F: 10 L/h/kg
  half-life: 5.76 h
[5]; monkey, plasma, po, 6 mg/kg, Tmax, plasma, after the 14th oral dose of DB844 at 6 mg/kg, n = 7, median, analyte = label
  Tmax: 0.96 h
[5]; monkey, plasma, po, 6 mg/kg, time of peak plasma concentration, after the last (14th) dose of DB844 at 6 mg/kg, analyte = label
  Tmax: 1 h
[5]; [15]
  AUC(0-∞): 70 nmol·days/L
  AUClast: 68 nmol·days/L
